The test system of assay [1] is hESCs (hESC line RC-0913). Description: RT-qPCR of retinal development markers during differentiation of hESCs. Format: cell-based, human. On the procedure: (§1) Clinical-grade hESC line RC-0913, was used and cultured in feeder free conditions using mTeSR™ Medium (StemCell technologies) and hESC qualified Matrigel (Corning). Cells were banked at passage 36 and used for RPE differentiation between passage 38 and 45. Cells were plated at 5×10^4 cells per cm^2 and grown until they reached 80 percent of confluence before switching to a differentiation medium composed of Dulbecco's modified Eagle's medium (high glucose, Thermo Fisher Scientific) supplemented with 50 μM β-mercaptoethanol, 1× minimum essential medium-nonessential amino acids (Thermo Fisher Scientific) and 20% (D0-D42) or 4% (after passage 1) of knockout serum replacement (KSR, Thermo Fisher Scientific). During all the differentiation process the medium was changed every 2/3 days.
(§2) For the referred “directed differentiation” protocol, 10 mM Nicotinamide (Sigma), 100 ng/ml Activin A
(§3) (Peprotech) and 3 μM CHIR99021 (Tocris) were added sequentially to the basal differentiation medium at specific time points (FIG. 2A).
Total RNAs were extracted using RNAeasy Plus Mini kit (Qiagen) and cDNA synthesized using SuperScript III (Invitrogen). Quantitative real-time RT-PCR was performed using a Quant Studio 12K flex (Applied Biosystems) with HiGreen qPCR Master Mix (Thermo Fisher Scientific). Experiments were performed with at least three technical replicates per plate and expression levels were normalized to 18S. Relative expression compared to hESCs gene expression levels were determined by calculating the 2-ΔΔCt.
A general note: In qPCR the cycle at which signal appears reflects the starting amount.

For assay [2], the system named is hESCs (hESC line RC-0913). The assay is described as follows: Immunostaining of marker proteins during differentiation of hESCs. Format: cell-based, human. On the procedure: as §1, §2, §3
hESC-RPE cells were grown on Matrigel-coated 96 or 24-well plates. Adherent cells were fixed in 4% PFA for 10 min at room temperature (RT) and rinsed 3 times with PBS. After 30 min in blocking solution (10% FBS in 0.1% Triton PBS) at RT, cells were incubated with primary antibodies overnight at 4° C. After 3 washes in PBS, appropriate Alexa Fluor-conjugated secondary antibodies (Invitrogen) were added at 1:500 for 1 h at RT in presence of DAPI (Invitrogen).
Images were acquired with an Axio observer Z1 microscope (Zeiss) with a Hamamatsu ORCA-flash 4.0 camera and a spinning disk unit (Yokogawa CSU-X1-A1N-E; Camera evolve, EMCCD 512) with Metamorph software or with a LSM-800 confocal microscope (Zeiss) with Zen software. Images were exported, analyzed and processed with Fiji software. […] The quantification of pigmented areas was performed after manual delimitation of culture dish areas using Fiji software. Pictures were then binarized to 8-bit images using a fixed intensity threshold and the black area fraction was measured (not herein shown).

Setting [3] is: CHIR99021 from day 14 to day 35-42.

Experimental findings from US12618045B2, “Automated method for preparing retinal pigment epithelium cells” (CENTRE D'ETUDE DES CELLULES SOUCHES (CECS), priority 2019, dated 2026) are described below.

On to `Cc1c[nH]c(-c2cnc(NCCNc3ccc(C#N)cn3)nc2-c2ccc(Cl)cc2Cl)n1` [CHIR99021], for which, in assay [1] (setting [3]), the “MITF expression (mRNA)” value was “continuous increased expression” and the “VSX2 mRNA levels” value is listed as “acute decreased expression”. Also, in assay [2] (day 21, CHIR99021 from day 14), the “MITF+ cells” value is 87.5%±12.5% and the VSX2 positive cells result is recorded as “absence”.
Regarding `NC(=O)c1cccnc1` [Nicotinamide], in assay [1] (Nicotinamide 10 mM, first 7 days of differentiation, compared to spontaneous protocol, p<0.01), the “transient expression of early eye field transcription factors SIX3 and RAX (mRNA)” value is “significantly enhanced”. Moreover, the “expression of pluripotency marker NANOG (mRNA)” value in assay [1] (Nicotinamide 10 mM, first 7 days, compared to spontaneous protocol, p<0.01) is on record as “higher decrease”. Besides, the “cells co-expressing LHX2 and PAX6 proteins” value in assay [2] (day 7 after Nicotinamide treatment, n=3) was 86.8%±4.3%.

B1: Activin A: member of TGF β superfamily, second differentiating agent, 100 ng/ml (Peprotech) (protein, UniProt P08476 311-426, looked up)
Inhibin beta A chain: GLECDGKVNICCKKQFFVSFKDIGWNDWIIAPSGYHANYCEGECPSHIAGTSGSSLSFHSTVINHYRMRGHSPFANLKSCCVPTKLRPMSMLYYDDGQNIIKKDIQNMIVEECGCS
modifications: Inhibin beta A chain
As to B1, the “RAX and SIX3 mRNA levels” value in assay [1] (Activin A day 7 to day 14) is listed as “decreased”. The “expression of optic vesicle transcription factors VSX2 and MITF (mRNA)” value in assay [1] (Activin A day 7 to day 14, compared to spontaneous differentiation, p≤0.05) is listed as “significantly increased”.
